Results as given in patent US12427134B2, “Methods of reducing the risk of cardiovascular events in a subject with atrial fibrillation and/or atrial flutter” (priority 2019, dated 2025).

Tested on: hypertriglyceridemic patients with cardiovascular disease or at high risk for cardiovascular disease
Assay: REDUCE-IT: treatment-emergent adverse events and serious adverse events (safety population)
[1] = patients taking ezetimibe at baseline

CC/C=C\C/C=C\C/C=C\C/C=C\C/C=C\CCCC(=O)OCC [AMR101, eicosapentaenoic acid ethyl ester]
Study drug-related TEAE leading to study drug withdrawal - Gastroesophageal reflux disease, % patients (Safety population, N = 4089): (0.1) %
Study drug-related TEAE leading to study drug withdrawal - Gastroesophageal reflux disease, n patients (Safety population, N = 4089): 5
Study drug-related TEAE leading to study drug withdrawal - Gastrointestinal disorders (SOC), % patients (Safety population, N = 4089): (2.4) %
Study drug-related TEAE leading to study drug withdrawal - Gastrointestinal disorders (SOC), n patients (Safety population, N = 4089): 97
Study drug-related TEAE leading to study drug withdrawal - Hypersensitivity, % patients (Safety population, N = 4089): (0.1) %
Study drug-related TEAE leading to study drug withdrawal - Hypersensitivity, n patients (Safety population, N = 4089): 3
Study drug-related TEAE leading to study drug withdrawal - Immune system disorders (SOC), % patients (Safety population, N = 4089): (0.1) %
Study drug-related TEAE leading to study drug withdrawal - Immune system disorders (SOC), n patients (Safety population, N = 4089): 4
Study drug-related TEAE leading to study drug withdrawal - Muscle spasms, % patients (Safety population, N = 4089): (0.0) %
Study drug-related TEAE leading to study drug withdrawal - Muscle spasms, n patients (Safety population, N = 4089): 0
Study drug-related TEAE leading to study drug withdrawal - Musculoskeletal and connective tissue disorders (SOC), % patients (Safety population, N = 4089): (0.3) %
Study drug-related TEAE leading to study drug withdrawal - Musculoskeletal and connective tissue disorders (SOC), n patients (Safety population, N = 4089): 13
Study drug-related TEAE leading to study drug withdrawal - Nausea, % patients (Safety population, N = 4089): (0.4) %
Study drug-related TEAE leading to study drug withdrawal - Nausea, n patients (Safety population, N = 4089): 16
Study drug-related TEAE leading to study drug withdrawal - Pruritus generalized, % patients (Safety population, N = 4089): (0.1) %
Study drug-related TEAE leading to study drug withdrawal - Pruritus generalized, n patients (Safety population, N = 4089): 3
Study drug-related TEAE leading to study drug withdrawal - Pruritus, % patients (Safety population, N = 4089): (0.0) %
Study drug-related TEAE leading to study drug withdrawal - Pruritus, n patients (Safety population, N = 4089): 1
Study drug-related TEAE leading to study drug withdrawal - Rash, % patients (Safety population, N = 4089): (0.1) %
Study drug-related TEAE leading to study drug withdrawal - Rash, n patients (Safety population, N = 4089): 3
Study drug-related TEAE leading to study drug withdrawal - Skin and subcutaneous disorders (SOC), % patients (Safety population, N = 4089): (0.4) %
Study drug-related TEAE leading to study drug withdrawal - Skin and subcutaneous disorders (SOC), n patients (Safety population, N = 4089): 16
Study drug-related TEAE leading to study drug withdrawal - Skin odor abnormal, % patients (Safety population, N = 4089): (0.1) %
Study drug-related TEAE leading to study drug withdrawal - Skin odor abnormal, n patients (Safety population, N = 4089): 3
Study drug-related TEAE leading to study drug withdrawal - Vomiting, % patients (Safety population, N = 4089): (0.1) %
Study drug-related TEAE leading to study drug withdrawal - Vomiting, n patients (Safety population, N = 4089): 3
Study drug-related TEAE: Arthralgia, % (Safety population, N = 4089): (0.6) %
Study drug-related TEAE: Diarrhea, % (Safety population, N = 4089): (2.7) %
Study drug-related TEAE: Dyspepsia, % (Safety population, N = 4089): (0.4) %
Study drug-related TEAE: Eructation, % (Safety population, N = 4089): (0.9) %
Study drug-related TEAE: Flatulence, % (Safety population, N = 4089): (0.8) %
Study drug-related TEAE: Gastrointestinal disorders, % (Safety population, N = 4089): (7.4) %
Study drug-related TEAE: Musculoskeletal and connective tissue disorders, % (Safety population, N = 4089): (1.4) %
Study drug-related TEAE: Nausea, % (Safety population, N = 4089): (0.8) %
Subjects with at Least One TEAE (Safety population, N = 4089): 3343 (81.8%) n (%)
TEAE Leading to Withdrawal of Study Drug, % (Safety population, N = 4089): (7.9) %
TEAE: Anemia, % (Safety population, N = 4089): (4.7) %
TEAE: Angina pectoris, % (Safety population, N = 4089): (4.9) %
TEAE: Arthralgia, % (Safety population, N = 4089): (7.7) %
TEAE: Atrial fibrillation, % (Safety population, N = 4089): (5.3) %
TEAE: Back pain, % (Safety population, N = 4089): (8.2) %
TEAE: Blood and lymphatic system disorders, % (Safety population, N = 4089): (7.9) %
TEAE: Bronchitis, % (Safety population, N = 4089): (7.5) %
TEAE: Cardiac disorders, % (Safety population, N = 4089): (22.3) %
TEAE: Cataract, % (Safety population, N = 4089): (5.7) %
TEAE: Chest pain, % (Safety population, N = 4089): (6.7) %
TEAE: Constipation, % (Safety population, N = 4089): (5.4) %
TEAE: Cough, % (Safety population, N = 4089): (5.9) %
TEAE: Diabetes mellitus, % (Safety population, N = 4089): (4.1) %
TEAE: Diarrhea, % (Safety population, N = 4089): (9.0) %
TEAE: Dizziness, % (Safety population, N = 4089): (5.7) %
TEAE: Dyspnea, % (Safety population, N = 4089): (6.2) %
TEAE: Edema peripheral, % (Safety population, N = 4089): (6.5) %
TEAE: Eye disorders, % (Safety population, N = 4089): (11.7) %
TEAE: Fall, % (Safety population, N = 4089): (3.6) %
TEAE: Fatigue, % (Safety population, N = 4089): (5.6) %
TEAE: Gastroesophageal reflux disease, % (Safety population, N = 4089): (3.0) %
TEAE: Gastrointestinal disorders, % (Safety population, N = 4089): (33.0) %
TEAE: General disorders and administration site conditions, % (Safety population, N = 4089): (25.2) %
TEAE: Gout, % (Safety population, N = 4089): (4.2) %
TEAE: Headache, % (Safety population, N = 4089): (4.2) %
TEAE: Hypertension, % (Safety population, N = 4089): (7.8) %
TEAE: Infections and infestations, % (Safety population, N = 4089): (44.6) %
TEAE: Influenza, % (Safety population, N = 4089): (6.4) %
TEAE: Injury, poisoning, and procedural complications, % (Safety population, N = 4089): (18.3) %
TEAE: Insomnia, % (Safety population, N = 4089): (3.0) %
TEAE: Metabolism and nutrition disorders, % (Safety population, N = 4089): (23.3) %
TEAE: Muscle spasms, % (Safety population, N = 4089): (2.5) %
TEAE: Musculoskeletal and connective tissue disorders, % (Safety population, N = 4089): (35.9) %
TEAE: Musculoskeletal pain, % (Safety population, N = 4089): (4.3) %
TEAE: Myalgia, % (Safety population, N = 4089): (3.3) %
TEAE: Nasopharyngitis, % (Safety population, N = 4089): (7.7) %
TEAE: Nausea, % (Safety population, N = 4089): (4.6) %
TEAE: Nervous system disorders, % (Safety population, N = 4089): (24.6) %
TEAE: Non-cardiac chest pain, % (Safety population, N = 4089): (3.9) %
TEAE: Osteoarthritis, % (Safety population, N = 4089): (5.9) %
TEAE: Pain in extremity, % (Safety population, N = 4089): (5.7) %
TEAE: Pneumonia, % (Safety population, N = 4089): (6.4) %
TEAE: Psychiatric disorders, % (Safety population, N = 4089): (9.1) %
TEAE: Respiratory, thoracic, and mediastinal disorders, % (Safety population, N = 4089): (24.2) %
TEAE: Sinusitis, % (Safety population, N = 4089): (4.1) %
TEAE: Type 2 diabetes mellitus, % (Safety population, N = 4089): (3.6) %
TEAE: Vascular disorders, % (Safety population, N = 4089): (17.3) %
Ventricular extrasystoles TEAE, Event Rate (Safety population, N = 4089): 0.7%
Ventricular extrasystoles TEAE, Number of Subjects (Safety population, N = 4089): 27
Ventricular fibrillation TEAE, Event Rate (Safety population, N = 4089): 0.0%
Ventricular fibrillation TEAE, Number of Subjects (Safety population, N = 4089): 0
Ventricular tachycardia TEAE, Event Rate (Safety population, N = 4089): 0.3%
Ventricular tachycardia TEAE, Number of Subjects (Safety population, N = 4089): 12
TEAE class GI disorders, patients [1]: 37.4%
TEAE class general disorders and administration site conditions, patients [1]: 26.3%
TEAE class musculoskeletal and connective tissue disorders, patients [1]: 41.2%
TEAE class nervous system disorders, patients [1]: 23.7%
TEAE class respiratory, thoracic, and mediastinal disorders, patients [1]: 27.5%
